Experiments:
DU-145 [1] = assay: Effect on total ERK1/2 protein level in human DU145 cells assessed as ratio of ERK1/2 protein level to GAPDH protein level at 5 uM after 3 hrs by Western blot analysis (reference value: 1); format: ADME, cell-based; details: du-145, 3 h
LNCaP [2] = assay: Growth inhibition of human LNCAP cells after 48 hrs by WST-1 assay; format: functional
[3] = target: T1, Signal transducer and activator of transcription 3 (Homo sapiens, UniProt P40763); assay: Binding affinity to STAT3 in human DU145 cell lysates assessed as reduction in pronase-induced STAT3 digestion by measuring ratio of STAT3 protein level to GAPDH protein level at 50 uM incubated for 1 hr followed by 0.02% pronase addition for 10 mins by Western blot analysis (reference value: 0.6)
T1 sequence (P40763 whole entry): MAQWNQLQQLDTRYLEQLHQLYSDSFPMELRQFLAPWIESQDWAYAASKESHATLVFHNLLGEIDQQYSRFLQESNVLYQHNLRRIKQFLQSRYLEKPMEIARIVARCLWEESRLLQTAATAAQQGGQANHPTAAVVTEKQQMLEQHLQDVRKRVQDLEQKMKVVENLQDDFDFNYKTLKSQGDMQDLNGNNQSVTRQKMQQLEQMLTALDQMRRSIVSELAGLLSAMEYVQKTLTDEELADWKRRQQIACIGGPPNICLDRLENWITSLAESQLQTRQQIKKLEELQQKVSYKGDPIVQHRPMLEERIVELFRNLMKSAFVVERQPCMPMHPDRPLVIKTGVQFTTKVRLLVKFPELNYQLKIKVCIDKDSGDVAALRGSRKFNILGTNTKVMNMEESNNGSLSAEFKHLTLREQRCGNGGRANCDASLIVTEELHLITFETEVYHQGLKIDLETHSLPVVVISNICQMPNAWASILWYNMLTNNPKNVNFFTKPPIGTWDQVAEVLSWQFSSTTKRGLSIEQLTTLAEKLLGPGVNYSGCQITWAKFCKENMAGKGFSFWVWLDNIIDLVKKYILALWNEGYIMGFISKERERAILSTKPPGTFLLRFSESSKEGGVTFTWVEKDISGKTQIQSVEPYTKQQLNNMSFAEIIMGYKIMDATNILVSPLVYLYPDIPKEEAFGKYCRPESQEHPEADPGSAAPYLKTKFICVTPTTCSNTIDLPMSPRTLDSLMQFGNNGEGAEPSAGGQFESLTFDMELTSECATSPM

DU-145 [4] = assay: Effect on total STAT3 protein level in human DU145 cells assessed as ratio of STAT3 protein level to GAPDH protein level at 5 uM after 0.5 hrs by Western blot analysis (reference value: 1); format: ADME, cell-based; details: du-145, 0.5 h
DU-145 [5] = assay: Induction of apoptosis in human DU145 cells at 5 uM after 24 hrs by flow cytometry (reference value: 0.61%); format: functional
DU-145 [6] = assay: Effect on total ERK1/2 protein level in human DU145 cells assessed as ratio of ERK1/2 protein level to GAPDH protein level at 5 uM after 6 hrs by Western blot analysis (reference value: 1); format: ADME, cell-based; details: du-145, 6 h
[7] = target: T1, Signal transducer and activator of transcription 3; assay: Inhibition of STAT3 phosphorylation at Tyr705 residues in human DU145 cells assessed as ratio of phosphorylated STAT3 protein level to GAPDH protein level at 5 uM after 3 hrs by Western blot analysis (reference value: 1); format: cell-based
[8] = target: T1, Signal transducer and activator of transcription 3; assay: Binding affinity to STAT3 in human DU145 cell lysates assessed as reduction in pronase-induced STAT3 digestion by measuring ratio of STAT3 protein level to GAPDH protein level at 100 uM incubated for 1 hr followed by 0.05% pronase addition for 10 mins by Western blot analysis (reference value: 1)
[9] = target: T1, Signal transducer and activator of transcription 3; assay: Binding affinity to STAT3 in human DU145 cell lysates assessed as reduction in pronase-induced STAT3 digestion by measuring ratio of STAT3 protein level to GAPDH protein level incubated for 1 hr in absence of pronase by Western blot analysis
DU-145 [10] = assay: Effect on total STAT3 protein level in human DU145 cells assessed as ratio of STAT3 protein level to GAPDH protein level at 0.5 uM after 24 hrs by Western blot analysis (reference value: 1); format: ADME, cell-based; details: du-145, 24 h
[11] = target: T1, Signal transducer and activator of transcription 3; assay: Inhibition of STAT3 phosphorylation at Tyr705 residues in human DU145 cells assessed as ratio of phosphorylated STAT3 protein level to GAPDH protein level at 5 uM after 12 hrs by Western blot analysis (reference value: 1); format: cell-based
DU-145 [12] = assay: Cell cycle arrest in human DU145 cells assessed as accumulation at G2/M phase at 5 uM after 48 hrs by flow cytometry (reference value: 18.12%); format: functional
[13] = target: T1, Signal transducer and activator of transcription 3; assay: Inhibition of STAT3 phosphorylation in human DU145 cells assessed as ratio of phosphorylated STAT3 protein level to GAPDH protein level at 5 uM preincubated with NAC for 1 hr followed by compound addition for 1 hr by Western blot analysis (reference value: 0.3); format: cell-based
DU-145 [14] = assay: Effect on total STAT3 protein level in human DU145 cells assessed as ratio of STAT3 protein level to GAPDH protein level at 0.1 uM after 24 hrs by Western blot analysis (reference value: 1); format: ADME, cell-based; details: du-145, 24 h
[15] = target: T1, Signal transducer and activator of transcription 3; assay: Inhibition of STAT3-induced ERK1/2 phosphorylation in human DU145 cells assessed as ratio of phosphorylated ERK1/2 protein level to GAPDH protein level at 5 uM after 1 hr by Western blot analysis (reference value: 1); format: cell-based
[16] = target: T1, Signal transducer and activator of transcription 3; assay: Binding affinity to STAT3 in human DU145 cell lysates assessed as reduction in pronase-induced STAT3 digestion by measuring ratio of STAT3 protein level to GAPDH protein level at 50 uM incubated for 1 hr in absence of pronase by Western blot analysis (reference value: 1)
DU-145 [17] = assay: Effect on total STAT3 protein level in human DU145 cells assessed as ratio of STAT3 protein level to GAPDH protein level at 5 uM after 1 hr by Western blot analysis (reference value: 1); format: ADME, cell-based; details: du-145, 1 h
[18] = target: T1, Signal transducer and activator of transcription 3; assay: Binding affinity to STAT3 in human DU145 cell lysates assessed as reduction in pronase-induced STAT3 digestion by measuring ratio of STAT3 protein level to GAPDH protein level at 50 uM incubated for 1 hr followed by 0.05% pronase addition for 10 mins by Western blot analysis (reference value: 1)
DU-145 [19] = assay: Cell cycle arrest in human DU145 cells assessed as accumulation at S phase at 5 uM after 24 hrs by flow cytometry (reference value: 6.6%); format: functional
DU-145 [20] = assay: Cell cycle arrest in human DU145 cells assessed as accumulation at G0/G1 phase at 5 uM after 24 hrs by flow cytometry (reference value: 24.07%); format: functional
[21] = target: T1, Signal transducer and activator of transcription 3; assay: Inhibition of STAT3 in human DU145 cells assessed as ratio of cyclin D1 protein level to tubulin protein level at 5 uM after 48 hrs by Western blot analysis (reference value: 1); format: cell-based
DU-145 [22] = assay: Induction of intracellular ROS generation in human DU145 cells at 5 uM by DCFH-DA probe based flow cytometry; format: functional, cell-based; details: TDE = time-dependent effect
[23] = target: T1, Signal transducer and activator of transcription 3; assay: Inhibition of IL-6-mediated STAT3 phosphorylation in human LNCAP cells assessed as ratio of phosphorylated STAT3 protein level to GAPDH protein level at 5 uM preincubated for 12 hrs followed by IL-6 stimulation for 30 mins by Western blot analysis (reference value: 7.5); format: cell-based
DU-145 [24] = assay: Effect on total ERK1/2 protein level in human DU145 cells assessed as ratio of ERK1/2 protein level to GAPDH protein level at 5 uM after 12 hrs by Western blot analysis (reference value: 1); format: ADME, cell-based; details: du-145, 12 h
DU-145 [25] = assay: Effect on total STAT3 protein level in human DU145 cells assessed as ratio of STAT3 protein level to GAPDH protein level at 5 uM after 24 hrs by Western blot analysis (reference value: 1); format: ADME, cell-based; details: du-145, 24 h
DU-145 [26] = assay: Effect on total ERK1/2 protein level in human DU145 cells assessed as ratio of ERK1/2 protein level to GAPDH protein level at 5 uM after 0.5 hrs by Western blot analysis (reference value: 1); format: ADME, cell-based; details: du-145, 0.5 h
LNCaP [27] = assay: Effect on total STAT3 protein level in IL-6 stimulated human LNCAP cells assessed as ratio of STAT3 protein level to GAPDH protein level at 5 uM preincubated for 12 hrs followed by IL-6 stimulation for 30 mins by Western blot analysis (reference value: 1.3); format: ADME, cell-based; details: 0.5 h
[28] = target: T1, Signal transducer and activator of transcription 3; assay: Binding affinity to STAT3 in human DU145 cell lysates assessed as reduction in pronase-induced STAT3 digestion by measuring ratio of STAT3 protein level to GAPDH protein level at 1 uM incubated for 1 hr in absence of pronase by Western blot analysis (reference value: 1)

Ratio (DU-145 [1]): 1.1 | GI50 (LNCaP [2]): 7.7 µM | Ratio [3]: 0.6 | Ratio (DU-145 [4]): 1 | Ratio (DU-145 [6]): 1 | Ratio [7]: 0.2 | Ratio [8]: 2.3 | Activity [9]: Dose-dependent effect | Ratio (DU-145 [10]): 1.1 | Ratio [11]: 0.2 | Ratio [13]: 1.2 | Ratio (DU-145 [14]): 1.1 | Ratio [15]: 1.8 | Ratio [16]: 1.1 | Ratio (DU-145 [17]): 1 | Ratio [18]: 2.2 | Ratio [21]: 0.9 | Ratio [23]: 1.6 | Ratio (DU-145 [24]): 0.9 | Ratio (DU-145 [25]): 0.7 | Ratio (DU-145 [26]): 1.1 | Ratio (LNCaP [27]): 1.1 | Ratio [28]: 1
SMILES: C=C(C)C(=O)N(Cc1ccc(Br)cc1)C(=O)/C=C/c1cc(OC)c(OC)c(OC)c1
Activity (DU-145 [5]): 0.72% | Activity (DU-145 [12]): 18.95% | Activity (DU-145 [19]): 8.27% | Activity (DU-145 [20]): 34.79% | Activity (DU-145 [22]): Tde
